# ChEMBL document CHEMBL3745631, “Discovery of highly potent and selective Bruton's tyrosine kinase inhibitors: Pyridazinone analogs with improved metabolic stability” (Bioorg Med Chem Lett, 2016)
# How the values were obtained:
# [1] = target: Tyrosine-protein kinase HCK (Homo sapiens) (UniProt P08631); test: Inhibition of Hck (unknown origin) at 1 uM
# [2] = target: Phosphorylase b kinase gamma catalytic chain, skeletal muscle/heart isoform (Homo sapiens) (UniProt Q16816); test: Inhibition of PhK gamma1 (unknown origin) at 1 uM
# [3] = target: Ephrin type-A receptor 2 (Homo sapiens) (UniProt P29317); test: Inhibition of EphA2 (unknown origin) at 1 uM
# [4] = target: Casein kinase I isoform epsilon (Homo sapiens) (UniProt P49674); test: Inhibition of CK1 epsilon1 (unknown origin) at 1 uM
# [5] = target: Mitogen-activated protein kinase 8 (Homo sapiens) (UniProt P45983); test: Inhibition of JNK1 alpha1 (unknown origin) at 1 uM
# [6] = target: Receptor tyrosine-protein kinase erbB-4 (Homo sapiens) (UniProt Q15303); test: Inhibition of ErbB4 (unknown origin) at 1 uM
# [7] = target: Platelet-derived growth factor receptor beta (Homo sapiens) (UniProt P09619); test: Inhibition of PDGFR_beta (unknown origin) at 1 uM
# [8] = Oral bioavailability in dog at 5 mg/kg by LC-MS/MS analysis; assay type: ADME, organism-based, Canis lupus familiaris; conditions: in vivo
# [9] = target: Inhibitor of nuclear factor kappa-B kinase subunit beta (Homo sapiens) (UniProt O14920); test: Inhibition of IKKbeta (unknown origin) at 1 uM
# [10] = target: Myotonin-protein kinase (Homo sapiens) (UniProt Q09013); test: Inhibition of DMPK (unknown origin) at 1 uM
# [11] = target: Tyrosine-protein kinase Blk (Homo sapiens) (UniProt P51451); test: Inhibition of Blk (unknown origin) at 1 uM
# [12] = target: Mitogen-activated protein kinase kinase kinase 2 (Homo sapiens) (UniProt Q9Y2U5); test: Inhibition of MEKK2 (unknown origin) at 1 uM
# [13] = target: Tyrosine-protein kinase Fgr (Homo sapiens, UniProt P09769); test: Inhibition of FGR (unknown origin) at 1 uM
# [14] = target: G protein-coupled receptor kinase 5 (Homo sapiens) (UniProt P34947); test: Inhibition of GRK5 (unknown origin) at 1 uM
# [15] = target: Tyrosine-protein kinase TXK (Homo sapiens) (UniProt P42681); test: Inhibition of TXK (unknown origin) at 1 uM
# [16] = target: CDK2/Cyclin A2 (Homo sapiens) (UniProt P24941+P20248); test: Inhibition of CDK2/cyclinA (unknown origin) at 1 uM; assay type: protein-complex assay
# [17] = target: Bone morphogenetic protein receptor type-1A (Homo sapiens) (UniProt P36894); test: Inhibition of BMPR1A (unknown origin) at 1 uM
# [18] = target: Tyrosine-protein kinase Fes/Fps (Homo sapiens) (UniProt P07332); test: Inhibition of Fes (unknown origin) at 1 uM
# [19] = target: Serine/threonine-protein kinase N1 (Homo sapiens) (UniProt Q16512); test: Inhibition of PRK1 (unknown origin) at 1 uM
# [20] = target: Serine/threonine-protein kinase NLK (Homo sapiens) (UniProt Q9UBE8); test: Inhibition of NLK (unknown origin) at 1 uM
# [21] = target: Dual specificity tyrosine-phosphorylation-regulated kinase 1A (Homo sapiens) (UniProt Q13627); test: Inhibition of DYRK1A (unknown origin) at 1 uM
# [22] = target: Cyclin-dependent kinase 1/cyclin B1 (Homo sapiens) (UniProt P06493+P14635); test: Inhibition of CDK1/cyclinB (unknown origin) at 1 uM; assay type: protein-complex assay
# [23] = target: Mitogen-activated protein kinase kinase kinase 8 (Homo sapiens) (UniProt P41279); test: Inhibition of Cot (unknown origin) at 1 uM
# [24] = target: Protein kinase C delta type (Homo sapiens) (UniProt Q05655); test: Inhibition of PKCdelta (unknown origin) at 1 uM
# [25] = target: Serine/threonine-protein kinase MARK1 (Homo sapiens) (UniProt Q9P0L2); test: Inhibition of MARK1 (unknown origin) at 1 uM
# [26] = target: SRSF protein kinase 2 (Homo sapiens) (UniProt P78362); test: Inhibition of SRPK2 (unknown origin) at 1 uM
# [27] = target: Epidermal growth factor receptor (Homo sapiens) (UniProt P00533); test: Inhibition of EGFR (unknown origin) at 1 uM
# [28] = target: Tyrosine-protein kinase Lck (Homo sapiens) (UniProt P06239); test: Inhibition of LCK (unknown origin) at 1 uM
# [29] = target: Serine/threonine-protein kinase 25 (Homo sapiens) (UniProt O00506); test: Inhibition of YSK1 (unknown origin) at 1 uM
# [30] = target: Interleukin-1 receptor-associated kinase 1 (Homo sapiens) (UniProt P51617); test: Inhibition of IRAK1 (unknown origin) at 1 uM
# [31] = target: Cyclin-dependent kinase 5/CDK5 activator 1 (Homo sapiens) (UniProt Q00535+Q15078); test: Inhibition of CDK5/p25 (unknown origin) at 1 uM; assay type: protein-complex assay
# [32] = target: Tyrosine-protein kinase FRK (Homo sapiens) (UniProt P42685); test: Inhibition of Frk (unknown origin) at 1 uM
# [33] = target: Casein kinase I isoform alpha (Homo sapiens) (UniProt P48729); test: Inhibition of CK1 alpha1 (unknown origin) at 1 uM
# [34] = target: Casein kinase I isoform delta (Homo sapiens) (UniProt P48730); test: Inhibition of CK1 delta (unknown origin) at 1 uM
# [35] = target: Dual specificity protein kinase CLK4 (Homo sapiens) (UniProt Q9HAZ1); test: Inhibition of CLK4 (unknown origin) at 1 uM
# [36] = target: Misshapen-like kinase 1 (Homo sapiens) (UniProt Q8N4C8); test: Inhibition of Mink1 (unknown origin) at 1 uM
# [37] = target: Serine/threonine-protein kinase 33 (Homo sapiens) (UniProt Q9BYT3); test: Inhibition of STK33 (unknown origin) at 1 uM
# [38] = target: Homeodomain-interacting protein kinase 4 (Homo sapiens) (UniProt Q8NE63); test: Inhibition of HIPK4 (unknown origin) at 1 uM
# [39] = target: Mitogen-activated protein kinase 14 (Homo sapiens) (UniProt Q16539); test: Inhibition of p38alpha (unknown origin) at 1 uM
# [40] = target: Dual specificity tyrosine-phosphorylation-regulated kinase 3 (Homo sapiens) (UniProt O43781); test: Inhibition of DYRK3 (unknown origin) at 1 uM
# [41] = target: MAP kinase-interacting serine/threonine-protein kinase 2 (Homo sapiens) (UniProt Q9HBH9); test: Inhibition of MKNK2 (unknown origin) at 1 uM
# [42] = Cytotoxicity against human T cells assessed as cell proliferation
# [43] = target: Mitogen-activated protein kinase kinase kinase kinase 2 (GCK) (Homo sapiens) (UniProt Q12851); test: Inhibition of GCK (unknown origin) at 1 uM
# [44] = target: Tyrosine-protein kinase ITK/TSK (Homo sapiens) (UniProt Q08881); test: Inhibition of ITK (unknown origin) at 1 uM
# Chain of Cyclin-dependent kinase 1/cyclin B1 (Homo sapiens) (P06493 whole entry, looked up): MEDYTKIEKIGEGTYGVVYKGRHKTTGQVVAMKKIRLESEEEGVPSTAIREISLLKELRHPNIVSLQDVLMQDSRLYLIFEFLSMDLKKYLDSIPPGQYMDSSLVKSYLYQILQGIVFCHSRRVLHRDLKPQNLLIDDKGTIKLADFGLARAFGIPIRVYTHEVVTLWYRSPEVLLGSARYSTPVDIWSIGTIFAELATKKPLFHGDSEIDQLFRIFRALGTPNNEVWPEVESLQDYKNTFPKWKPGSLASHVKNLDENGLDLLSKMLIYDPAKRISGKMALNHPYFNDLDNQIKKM
# Chain of Cyclin-dependent kinase 1/cyclin B1 (Homo sapiens) (P14635 whole entry, looked up): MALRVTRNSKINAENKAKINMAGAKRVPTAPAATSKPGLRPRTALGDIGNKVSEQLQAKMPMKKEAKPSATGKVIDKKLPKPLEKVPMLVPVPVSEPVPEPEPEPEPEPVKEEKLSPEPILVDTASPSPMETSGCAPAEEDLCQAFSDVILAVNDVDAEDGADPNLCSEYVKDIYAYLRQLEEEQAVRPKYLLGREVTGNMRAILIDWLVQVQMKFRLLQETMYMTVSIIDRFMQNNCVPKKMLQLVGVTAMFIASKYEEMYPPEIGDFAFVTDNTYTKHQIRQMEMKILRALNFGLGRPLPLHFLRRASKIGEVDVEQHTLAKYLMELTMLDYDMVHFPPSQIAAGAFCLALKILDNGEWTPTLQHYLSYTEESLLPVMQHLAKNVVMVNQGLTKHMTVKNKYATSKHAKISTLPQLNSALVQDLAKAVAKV
# Chain of Tyrosine-protein kinase Lck (Homo sapiens) (P06239 2-509 limits assumed): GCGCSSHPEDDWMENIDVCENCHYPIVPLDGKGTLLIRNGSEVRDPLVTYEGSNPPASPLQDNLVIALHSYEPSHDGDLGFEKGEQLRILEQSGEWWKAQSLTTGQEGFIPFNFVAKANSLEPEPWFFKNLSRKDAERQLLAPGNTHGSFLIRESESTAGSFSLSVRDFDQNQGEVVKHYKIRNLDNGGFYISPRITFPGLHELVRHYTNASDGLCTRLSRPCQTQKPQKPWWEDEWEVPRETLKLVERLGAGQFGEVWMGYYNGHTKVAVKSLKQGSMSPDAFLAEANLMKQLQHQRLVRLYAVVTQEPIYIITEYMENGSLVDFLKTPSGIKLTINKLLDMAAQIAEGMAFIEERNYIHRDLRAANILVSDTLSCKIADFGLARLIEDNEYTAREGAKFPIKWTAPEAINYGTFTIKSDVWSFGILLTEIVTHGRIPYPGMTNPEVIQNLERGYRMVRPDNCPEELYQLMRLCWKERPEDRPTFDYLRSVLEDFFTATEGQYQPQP
# Chain of Mitogen-activated protein kinase kinase kinase kinase 2 (GCK) (Homo sapiens) (Q12851 whole entry, looked up): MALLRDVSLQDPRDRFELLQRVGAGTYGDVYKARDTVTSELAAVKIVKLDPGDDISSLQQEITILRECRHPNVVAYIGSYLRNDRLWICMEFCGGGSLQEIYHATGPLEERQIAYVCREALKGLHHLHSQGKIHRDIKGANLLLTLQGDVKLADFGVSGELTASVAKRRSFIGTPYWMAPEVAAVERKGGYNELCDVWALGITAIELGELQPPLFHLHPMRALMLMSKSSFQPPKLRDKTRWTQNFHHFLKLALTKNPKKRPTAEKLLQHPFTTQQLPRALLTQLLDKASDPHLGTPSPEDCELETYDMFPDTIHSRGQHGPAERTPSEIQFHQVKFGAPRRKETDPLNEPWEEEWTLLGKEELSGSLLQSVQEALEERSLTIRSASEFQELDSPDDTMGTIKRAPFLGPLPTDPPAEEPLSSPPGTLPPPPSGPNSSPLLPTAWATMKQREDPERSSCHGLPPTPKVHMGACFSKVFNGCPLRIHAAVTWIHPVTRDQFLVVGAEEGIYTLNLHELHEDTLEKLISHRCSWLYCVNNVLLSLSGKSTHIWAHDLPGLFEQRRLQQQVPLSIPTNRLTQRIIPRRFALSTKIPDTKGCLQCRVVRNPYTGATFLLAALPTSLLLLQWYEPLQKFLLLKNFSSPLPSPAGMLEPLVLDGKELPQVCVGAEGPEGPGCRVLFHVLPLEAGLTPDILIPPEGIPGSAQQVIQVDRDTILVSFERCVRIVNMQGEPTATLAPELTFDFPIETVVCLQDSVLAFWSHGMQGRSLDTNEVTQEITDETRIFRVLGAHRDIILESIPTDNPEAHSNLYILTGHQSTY
# Chain of Tyrosine-protein kinase Blk (Homo sapiens) (P51451 2-505 limits assumed): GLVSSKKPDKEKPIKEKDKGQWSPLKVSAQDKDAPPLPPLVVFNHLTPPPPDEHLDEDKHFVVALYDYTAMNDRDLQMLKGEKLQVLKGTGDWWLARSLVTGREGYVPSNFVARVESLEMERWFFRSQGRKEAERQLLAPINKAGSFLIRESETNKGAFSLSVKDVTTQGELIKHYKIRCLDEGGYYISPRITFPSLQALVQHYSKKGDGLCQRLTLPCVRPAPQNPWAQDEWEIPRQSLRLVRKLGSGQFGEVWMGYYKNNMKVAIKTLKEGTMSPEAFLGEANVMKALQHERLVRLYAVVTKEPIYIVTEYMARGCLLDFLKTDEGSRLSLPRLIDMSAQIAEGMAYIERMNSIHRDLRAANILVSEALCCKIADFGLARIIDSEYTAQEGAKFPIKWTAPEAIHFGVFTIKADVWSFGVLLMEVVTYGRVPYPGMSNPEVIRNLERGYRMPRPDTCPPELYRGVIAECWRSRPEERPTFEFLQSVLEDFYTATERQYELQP
# Chain of Phosphorylase b kinase gamma catalytic chain, skeletal muscle/heart isoform (Homo sapiens) (Q16816 whole entry, looked up, canonical isoform): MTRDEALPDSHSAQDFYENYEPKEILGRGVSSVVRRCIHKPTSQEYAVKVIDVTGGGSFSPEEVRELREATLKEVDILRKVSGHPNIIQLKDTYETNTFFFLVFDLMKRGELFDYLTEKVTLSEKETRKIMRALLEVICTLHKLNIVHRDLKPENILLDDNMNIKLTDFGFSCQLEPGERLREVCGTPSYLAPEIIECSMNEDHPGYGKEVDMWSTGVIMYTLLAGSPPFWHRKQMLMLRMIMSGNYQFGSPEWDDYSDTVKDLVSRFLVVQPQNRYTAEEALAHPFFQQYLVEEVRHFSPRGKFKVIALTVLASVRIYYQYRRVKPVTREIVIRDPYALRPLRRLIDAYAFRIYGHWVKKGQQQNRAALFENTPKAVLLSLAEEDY
# Chain of Mitogen-activated protein kinase kinase kinase 8 (Homo sapiens) (P41279 whole entry): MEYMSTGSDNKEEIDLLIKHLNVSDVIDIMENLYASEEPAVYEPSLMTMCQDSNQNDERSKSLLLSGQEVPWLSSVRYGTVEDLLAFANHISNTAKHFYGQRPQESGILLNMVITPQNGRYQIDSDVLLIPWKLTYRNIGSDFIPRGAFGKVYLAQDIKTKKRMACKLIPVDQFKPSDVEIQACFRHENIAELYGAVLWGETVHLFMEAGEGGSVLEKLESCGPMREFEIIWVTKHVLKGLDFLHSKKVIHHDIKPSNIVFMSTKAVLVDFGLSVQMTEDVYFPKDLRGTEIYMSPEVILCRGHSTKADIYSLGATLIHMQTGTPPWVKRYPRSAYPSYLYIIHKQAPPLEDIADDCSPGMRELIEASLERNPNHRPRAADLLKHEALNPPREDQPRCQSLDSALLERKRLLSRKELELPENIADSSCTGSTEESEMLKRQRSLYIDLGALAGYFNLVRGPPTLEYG
# Chain of Serine/threonine-protein kinase N1 (Homo sapiens) (Q16512 2-942 limits assumed): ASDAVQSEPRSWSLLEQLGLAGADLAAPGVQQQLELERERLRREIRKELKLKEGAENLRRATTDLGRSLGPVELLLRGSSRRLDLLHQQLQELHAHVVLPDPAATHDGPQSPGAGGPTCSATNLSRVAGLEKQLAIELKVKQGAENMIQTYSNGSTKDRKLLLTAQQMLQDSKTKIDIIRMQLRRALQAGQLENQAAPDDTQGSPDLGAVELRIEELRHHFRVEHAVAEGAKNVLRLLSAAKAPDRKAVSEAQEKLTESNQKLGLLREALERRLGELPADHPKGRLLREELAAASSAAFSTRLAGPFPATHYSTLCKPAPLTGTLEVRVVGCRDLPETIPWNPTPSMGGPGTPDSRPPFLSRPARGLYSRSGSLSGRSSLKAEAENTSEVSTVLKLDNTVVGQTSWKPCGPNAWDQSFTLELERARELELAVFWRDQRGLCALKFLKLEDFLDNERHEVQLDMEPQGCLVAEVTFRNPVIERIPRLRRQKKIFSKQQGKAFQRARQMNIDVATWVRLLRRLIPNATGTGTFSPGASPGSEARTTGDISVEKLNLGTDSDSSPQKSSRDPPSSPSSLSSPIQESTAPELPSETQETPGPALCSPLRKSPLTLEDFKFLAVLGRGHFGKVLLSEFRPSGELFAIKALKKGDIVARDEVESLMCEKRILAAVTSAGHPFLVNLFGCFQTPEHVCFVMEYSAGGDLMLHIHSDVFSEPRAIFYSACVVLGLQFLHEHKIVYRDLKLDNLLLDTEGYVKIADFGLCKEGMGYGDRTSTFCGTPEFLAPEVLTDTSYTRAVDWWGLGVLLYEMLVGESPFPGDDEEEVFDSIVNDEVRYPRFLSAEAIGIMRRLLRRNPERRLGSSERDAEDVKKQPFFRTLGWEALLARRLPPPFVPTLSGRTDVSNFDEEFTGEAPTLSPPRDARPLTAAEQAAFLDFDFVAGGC
# Chain of Serine/threonine-protein kinase 33 (Homo sapiens) (Q9BYT3 whole entry, looked up): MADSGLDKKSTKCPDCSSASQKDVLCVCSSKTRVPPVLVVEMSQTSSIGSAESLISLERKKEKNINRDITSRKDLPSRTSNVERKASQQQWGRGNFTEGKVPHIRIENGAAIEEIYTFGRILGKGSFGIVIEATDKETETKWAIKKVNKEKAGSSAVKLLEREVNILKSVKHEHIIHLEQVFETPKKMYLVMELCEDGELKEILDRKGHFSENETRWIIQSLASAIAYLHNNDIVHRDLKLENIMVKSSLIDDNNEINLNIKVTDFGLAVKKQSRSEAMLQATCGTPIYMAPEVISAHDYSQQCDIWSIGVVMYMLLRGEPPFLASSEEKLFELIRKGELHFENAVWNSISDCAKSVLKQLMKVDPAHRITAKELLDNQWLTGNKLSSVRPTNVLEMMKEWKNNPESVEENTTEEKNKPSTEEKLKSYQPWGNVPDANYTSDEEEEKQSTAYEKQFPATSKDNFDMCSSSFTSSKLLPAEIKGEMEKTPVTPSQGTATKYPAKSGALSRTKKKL
compound,measurement,setting,value
Cc1c(-c2cc(Nc3cc4n(n3)CCN(C)C4)c(=O)[nH]n2)ccc(F)c1NC(=O)c1cc2ccccc2s1,inhibition,[1],3%
same,inhibition,[2],-1.2%
same,inhibition,[3],8%
same,inhibition,[4],8.6%
same,inhibition,[5],8.7%
same,inhibition,[6],2.7%
same,inhibition,[7],8%
same,bioavailability,[8],65%
same,inhibition,[9],2.2%
same,inhibition,[10],-3.6%
same,inhibition,[11],10.6%
same,inhibition,[12],9.2%
same,inhibition,[13],69.8%
same,inhibition,[14],3.8%
same,inhibition,[15],-4.7%
same,inhibition,[16],-0.9%
same,inhibition,[17],-4.5%
same,inhibition,[18],7.2%
same,inhibition,[19],-3.7%
same,inhibition,[20],-4.8%
same,inhibition,[21],4.8%
same,inhibition,[22],7.3%
same,inhibition,[23],20.1%
same,inhibition,[24],-8%
same,inhibition,[25],-4.7%
same,inhibition,[26],-2%
same,inhibition,[27],-5.5%
same,inhibition,[28],39.3%
same,inhibition,[29],-3.4%
same,inhibition,[30],-2.2%
same,inhibition,[31],2.4%
same,inhibition,[32],-0.8%
same,inhibition,[33],4%
same,inhibition,[34],4.7%
same,inhibition,[35],5.8%
same,inhibition,[36],17.8%
same,inhibition,[37],8.3%
same,inhibition,[38],7.8%
same,inhibition,[39],1%
same,inhibition,[40],3.3%
same,inhibition,[41],-0.2%
same,EC50,[42],> 5 µM
same,inhibition,[43],-9%
same,inhibition,[44],38.3%
